Experimental data taken from publication PMC7504387, “Antimicrobial and Amyloidogenic Activity of Peptides Synthesized on the Basis of the Ribosomal S1 Protein from Thermus Thermophilus” (International Journal of Molecular Sciences, 2020).
Where a SMILES comes first, the peptide text is derived from it.

Test system: T. thermophilus cells
Assay: Mass spectrometry proteome analysis of peptide-treated T. thermophilus cells
Format: cell-based
Design: change in number of ribosomal proteins in comparison with the control: dose or concentration left out as unconfirmed
Details: for Ribosomal Proteins (number detected, 3 or more identified peptides) / All Proteins / total protein detected (number) / detection of ribosomal S1 protein: 24 h; for Ribosomal Proteins (number detected, 3 or more identified peptides): control 51 (with S1), homogenization by freezing-thawing; for All Proteins / total protein detected (number): control 386; for detection of ribosomal S1 protein: control with S1; for Number of proteins, keyword Aminotransferase / Number of proteins, keyword Aromatic amino acid biosynthesis / Number of proteins, keyword DNA replication / Number of proteins, keyword Endonuclease / Number of proteins, keyword Histidine biosynthesis / Number of proteins, keyword Nuclease / Number of proteins, keyword One-carbon metabolism / Number of proteins, keyword Potassium / Number of proteins, keyword Purine salvage / Number of proteins, keyword S-adenosyl-L-methionine / Number of proteins, keyword Serine/threonine-protein kinase / Number of proteins, keyword tRNA processing: 0 μg/ml: 1; for Number of proteins, keyword Isoleucine biosynthesis / Number of proteins, keyword Ribosome biogenesis: 0 μg/ml: 2; for Number of proteins, keyword Aminopeptidase / Number of proteins, keyword Phosphoprotein / Number of proteins, keyword Purine biosynthesis / Number of proteins, keyword Redox-active center: 0 μg/ml: 3; for Number of proteins, keyword Glyoxylate bypass / Number of proteins, keyword Threonine biosynthesis: 0 μg/ml: 4; for Number of proteins, keyword Methionine biosynthesis: 0 μg/ml: 5; for Number of proteins, keyword Allosteric enzyme: 0 μg/ml: 6; for Number of proteins, keyword Serine protease: 0 μg/ml: 7; for Number of proteins, keyword NADP: 0 μg/ml: 8; for Number of proteins, keyword Protease: 0 μg/ml: 16; for Number of proteins, keyword Aminoacyl-tRNA synthetase: 0 μg/ml: 20; for Number of proteins, keyword Magnesium: 0 μg/ml: 23; for Number of proteins, keyword Hydrolase: 0 μg/ml: 26; for Unique proteins (number): control 100
Description: T. thermophilus cells were incubated with or without peptides for 24 h. […] The cell extract was not allowed to heat above +10 °C. Cell debris and aggregates were collected by sedimentation using centrifugation in a 221.23 V20 rotor of a Z 36 HK centrifuge (Hermle Labortechnik GmbH, Wehingen, Germany) at 20,000× g 20 min at +4 °C. The supernatant was dried using a vacuum Concentrator 5301 (Eppendorf, Hamburg, Germany). The prepared lysate was dissolved in 100 μL of 9M urea to denature the total protein. Then, 20 μL of cell lysates was separated by electrophoretic in 12% SDS-PAGE. Protein fractions were divided on three equal parts, that every part was chop and treated with trypsin protease. Mass spectrometry analysis of every part was carried out independently. To purify the samples treated with trypsin, filtration was carried out through ZipTips (MilliporeSigma, Burlington, MA, USA). Protein hydrolyzates were concentrated on a pre-column Acclaim PepMap 100 (C18, 3 μm particle size, 100 Å pore size, 300 μm inner diameter × 5 mm length) and separated on an analytical column Acclaim PepMap RSLC (2 μm particle size, 100 Å pore size, 75 μm inner diameter × 150 mm length) (Thermo Scientific, Waltham, MA, USA) using nanoflow liquid chromatograph EASY nLC 1000 (Thermo Scientific, Waltham, MA, USA). A high-performance mass spectrometer an Orbitrap Elite (Thermo Scientific, Dreieich, Germany) was used as a detector. Panoramic spectra were recorded in the mass range m/z 300–2000 at resolution 60,000; ion fragmentation was performed in an HCD cell; the fragmentation spectra were recorded at resolution 15,000. Preliminary selection of identified peptides with a molecular mass (MM) >600 Da was carried out according to the evaluation criteria of the PEAKS Studio 7.5 program (Bioinformatics Solution Inc., Waterloo, ON N2L 6J2, Canada). The peptides with the threshold function value T = −10·logP > 15 were considered significant, where P is the probability that false identification will reach the same or better match score. The T value of >15 corresponds to the p criterion <0.03 [29]. The received fragmentation spectra were analyzed by web-server Identipy. Identification of proteins in the mass spectra of the total protein was carried out using the database of the reference T. thermophilus proteome (Uniprot, No. UP000217909). Proteome data every part was summarized. Subsequent analysis was conducted by using the statistics software R with packages UniProt.ws, tidyverse, ggplot2, splitstackshape, reshape, readr, RVenn, UpSetR (https://rdrr.io/bioc/UniProt.ws/; https://CRAN.R-project.org/package=readr; https://CRAN.R-project.org/package=splitstackshape; https://CRAN.R-project.org/package=readr; https://CRAN.R-project.org/package=RVen).
Annotation of the certain proteins by keywords of the Uniprot database allows us to evaluate the changes in protein composition in 10 categories: biological process, cellular component, variety of coding sequences, molecular function, and others. The number of keywords corresponds to the number of annotated proteins.

CC[C@H](C)[C@H](NC(=O)[C@H](CCC(=O)O)NC(=O)[C@@H](NC(=O)[C@H](Cc1ccccc1)NC(=O)[C@@H](NC(=O)CNC(=O)[C@H](Cc1ccccc1)NC(=O)[C@H](CC(=O)O)NC(=O)[C@@H](NC(=O)[C@@H](NC(=O)CNC(=O)CN(C)C(=O)CNC(=O)CNC(=O)[C@H](CCCNC(=N)N)NC(=O)[C@H](CCCNC(=N)N)NC(=O)[C@H](CCCNC(=N)N)NC(=O)[C@H](CCC(N)=O)NC(=O)[C@H](CCCNC(=N)N)NC(=O)[C@H](CCCNC(=N)N)NC(=O)[C@H](CCCCN)NC(=O)[C@H](CCCCN)NC(=O)[C@@H](N)CCCNC(=N)N)C(C)C)[C@@H](C)O)C(C)C)C(C)C)C(=O)O [R23I] (HELM PEPTIDE1{R.K.K.R.R.Q.R.R.R.G.G.[Sar].G.V.T.D.F.G.V.F.V.E.I}$$$$V2.0; N-terminus and C-terminus assumed)
change in number of ribosomal proteins in comparison with the control (R23I): more than two-fold decrease | less numbers of proteins detected relative to the control (R23I 20 μg/mL): 40% | Common proteins for cells in control and treated cells (number) (R23I 20 μg/ml): 20 | Ribosomal Proteins (number detected, 3 or more identified peptides) (R23I 20 μg/ml): 42 | All Proteins / total protein detected (number) (R23I 20 μg/ml): 232 | detection of ribosomal S1 protein (R23I 20 μg/ml): 42 (without S1) | Number of proteins, keyword Aminotransferase (R23I 20 μg/ml): 0 | Number of proteins, keyword Aromatic amino acid biosynthesis (R23I 20 μg/ml): 0 | Number of proteins, keyword DNA replication (R23I 20 μg/ml): 0 | Number of proteins, keyword Endonuclease (R23I 20 μg/ml): 0 | Number of proteins, keyword Histidine biosynthesis (R23I 20 μg/ml): 0 | Number of proteins, keyword Nuclease (R23I 20 μg/ml): 0 | Number of proteins, keyword One-carbon metabolism (R23I 20 μg/ml): 0 | Number of proteins, keyword Potassium (R23I 20 μg/ml): 0 | Number of proteins, keyword Purine salvage (R23I 20 μg/ml): 0 | Number of proteins, keyword S-adenosyl-L-methionine (R23I 20 μg/ml): 0 | Number of proteins, keyword Serine/threonine-protein kinase (R23I 20 μg/ml): 0 | Number of proteins, keyword tRNA processing (R23I 20 μg/ml): 0 | Number of proteins, keyword Isoleucine biosynthesis (R23I 20 μg/ml): 0 | Number of proteins, keyword Ribosome biogenesis (R23I 20 μg/ml): 0 | Number of proteins, keyword Aminopeptidase (R23I 20 μg/ml): 0 | Number of proteins, keyword Phosphoprotein (R23I 20 μg/ml): 1 | Number of proteins, keyword Purine biosynthesis (R23I 20 μg/ml): 1 | Number of proteins, keyword Redox-active center (R23I 20 μg/ml): 0 | Number of proteins, keyword Glyoxylate bypass (R23I 20 μg/ml): 1 | Number of proteins, keyword Threonine biosynthesis (R23I 20 μg/ml): 1 | Number of proteins, keyword Methionine biosynthesis (R23I 20 μg/ml): 1 | Number of proteins, keyword Allosteric enzyme (R23I 20 μg/ml): 1 | Number of proteins, keyword Serine protease (R23I 20 μg/ml): 1 | Number of proteins, keyword NADP (R23I 20 μg/ml): 2 | Number of proteins, keyword Protease (R23I 20 μg/ml): 5 | Number of proteins, keyword Aminoacyl-tRNA synthetase (R23I 20 μg/ml): 7 | Number of proteins, keyword Magnesium (R23I 20 μg/ml): 9 | Number of proteins, keyword Hydrolase (R23I 20 μg/ml): 9 | Unique proteins (number) (R23I 20 μg/ml): 11 | less numbers of proteins detected relative to the control (R23I 50 μg/mL): 48% | ratio of proteins from treated cells to proteins from intact cells (R23I 50 μg/mL, 201 to 386 proteins): 0.52 | Common proteins for cells in control and treated cells (number) (R23I 50 μg/ml): 9 | Ribosomal Proteins (number detected, 3 or more identified peptides) (R23I 50 μg/ml): 39 | All Proteins / total protein detected (number) (R23I 50 μg/ml): 201 | detection of ribosomal S1 protein (R23I 50 μg/ml): 39 (without S1) | Number of proteins, keyword Aminotransferase (R23I 50 μg/ml): 0 | Number of proteins, keyword Aromatic amino acid biosynthesis (R23I 50 μg/ml): 0 | Number of proteins, keyword DNA replication (R23I 50 μg/ml): 0 | Number of proteins, keyword Endonuclease (R23I 50 μg/ml): 0 | Number of proteins, keyword Histidine biosynthesis (R23I 50 μg/ml): 0 | Number of proteins, keyword Nuclease (R23I 50 μg/ml): 0 | Number of proteins, keyword One-carbon metabolism (R23I 50 μg/ml): 0 | Number of proteins, keyword Potassium (R23I 50 μg/ml): 0 | Number of proteins, keyword Purine salvage (R23I 50 μg/ml): 0 | Number of proteins, keyword S-adenosyl-L-methionine (R23I 50 μg/ml): 0 | Number of proteins, keyword Serine/threonine-protein kinase (R23I 50 μg/ml): 0 | Number of proteins, keyword tRNA processing (R23I 50 μg/ml): 1 | Number of proteins, keyword Isoleucine biosynthesis (R23I 50 μg/ml): 0 | Number of proteins, keyword Ribosome biogenesis (R23I 50 μg/ml): 0 | Number of proteins, keyword Aminopeptidase (R23I 50 μg/ml): 0 | Number of proteins, keyword Phosphoprotein (R23I 50 μg/ml): 2 | Number of proteins, keyword Purine biosynthesis (R23I 50 μg/ml): 1 | Number of proteins, keyword Redox-active center (R23I 50 μg/ml): 0 | Number of proteins, keyword Glyoxylate bypass (R23I 50 μg/ml): 1 | Number of proteins, keyword Threonine biosynthesis (R23I 50 μg/ml): 1 | Number of proteins, keyword Methionine biosynthesis (R23I 50 μg/ml): 1 | Number of proteins, keyword Allosteric enzyme (R23I 50 μg/ml): 1 | Number of proteins, keyword Serine protease (R23I 50 μg/ml): 2 | Number of proteins, keyword NADP (R23I 50 μg/ml): 2 | Number of proteins, keyword Protease (R23I 50 μg/ml): 5 | Number of proteins, keyword Aminoacyl-tRNA synthetase (R23I 50 μg/ml): 7 | Number of proteins, keyword Magnesium (R23I 50 μg/ml): 9 | Number of proteins, keyword Hydrolase (R23I 50 μg/ml): 8 | Unique proteins (number) (R23I 50 μg/ml): 2 | Common proteins for cells in control and treated cells (number) (R23I 100 μg/ml): 69 | Ribosomal Proteins (number detected, 3 or more identified peptides) (R23I 100 μg/ml): 23 | All Proteins / total protein detected (number) (R23I 100 μg/ml): 395 | detection of ribosomal S1 protein (R23I 100 μg/ml): 23 (with S1) | Number of proteins, keyword Aminotransferase (R23I 100 μg/ml): 1 | Number of proteins, keyword Aromatic amino acid biosynthesis (R23I 100 μg/ml): 1 | Number of proteins, keyword DNA replication (R23I 100 μg/ml): 2 | Number of proteins, keyword Endonuclease (R23I 100 μg/ml): 2 | Number of proteins, keyword Histidine biosynthesis (R23I 100 μg/ml): 1 | Number of proteins, keyword Nuclease (R23I 100 μg/ml): 2 | Number of proteins, keyword One-carbon metabolism (R23I 100 μg/ml): 1 | Number of proteins, keyword Potassium (R23I 100 μg/ml): 1 | Number of proteins, keyword Purine salvage (R23I 100 μg/ml): 0 | Number of proteins, keyword S-adenosyl-L-methionine (R23I 100 μg/ml): 1 | Number of proteins, keyword Serine/threonine-protein kinase (R23I 100 μg/ml): 0 | Number of proteins, keyword tRNA processing (R23I 100 μg/ml): 1 | Number of proteins, keyword Isoleucine biosynthesis (R23I 100 μg/ml): 1 | Number of proteins, keyword Ribosome biogenesis (R23I 100 μg/ml): 0 | Number of proteins, keyword Aminopeptidase (R23I 100 μg/ml): 0 | Number of proteins, keyword Phosphoprotein (R23I 100 μg/ml): 5 | Number of proteins, keyword Purine biosynthesis (R23I 100 μg/ml): 3 | Number of proteins, keyword Redox-active center (R23I 100 μg/ml): 3 | Number of proteins, keyword Glyoxylate bypass (R23I 100 μg/ml): 4 | Number of proteins, keyword Threonine biosynthesis (R23I 100 μg/ml): 2 | Number of proteins, keyword Methionine biosynthesis (R23I 100 μg/ml): 3 | Number of proteins, keyword Allosteric enzyme (R23I 100 μg/ml): 4 | Number of proteins, keyword Serine protease (R23I 100 μg/ml): 3 | Number of proteins, keyword NADP (R23I 100 μg/ml): 6 | Number of proteins, keyword Protease (R23I 100 μg/ml): 11 | Number of proteins, keyword Aminoacyl-tRNA synthetase (R23I 100 μg/ml): 19 | Number of proteins, keyword Magnesium (R23I 100 μg/ml): 33 | Number of proteins, keyword Hydrolase (R23I 100 μg/ml): 31 | Unique proteins (number) (R23I 100 μg/ml): 176
